# According to patent publication US20250057791A1, “PROTECTION AGAINST ARTHROPOD PARASITES WITH PURINERGIC RECEPTOR (OPR) ANTAGONISTS” (priority 2021, published 2025):
# Values joined by “and” are separate entries in the source; they are usually repeats but may differ in a detail not shown here. Identical values can stand only once. “Also recorded” adds a separate entry of the source. Residues, ends and D or L forms follow the SMILES beside them.
# Tests used:
# [1] = test system: A. gambiae labellum sensilla (purine-sensitive cell); assay: Tip recording of action potentials from A. gambiae labellum sensilla in response to agonists; format: cell-based, Anopheles gambiae; conditions: for ED95 / dose at which the unsurmountable asymptote is reached / EC50: spike frequency as a function of dose; for EC50: Anopheles gambiae, read-out: ED50 (the source's name); for spikes recorded at the asymptote: at 250 pM; for Mean spike frequency per 2 s (±SEM): each compound at 200 pM alone and in binary mixtures, T1 labellum sensilla
# Protocol: (§1) The tip recording method was used to record action potentials (spikes) from sensory cells in sensilla on A. gambiae labellum lobes.
# (§2) Sensilla were exposed to test compounds and PR antagonists for ca. 2-4 s and spikes were counted in the first 2 s of recordings. Up to 4 test compounds were tested on a sensillum to evaluate potential agonists, each presented at 200 pM. To study responses as a function of dose for agonists ATP, adenosine, AMP, AMP-CPP and ATP+adenosine, up to 7 recordings were made at increasing doses of agonist from the same sensillum. Unless otherwise stated, recordings were made throughout from 4 to 16 sensilla from individual 4-6-day-old females per dose of agonist, antagonist and metal ion modulator. For example, a response curve established over 6 doses of an antagonist using 8 sensilla per dose involved recording from a sensillum of 48 separate mosquitoes. A given dose of a PR antagonist or metal ion modulator was only presented once to a sensillum. Two-second recordings were imported as ASCII files into DataView software for analysis of spike amplitude. Differences in spike amplitude generated by stimulation of one 8v sensillum/female with 1 mM sucrose (n=294 spikes from 6 females) 200 pM adenosine (n=207 spikes from 7 females) and 200 pM ATP (n=192 spikes from 7 females) were compared by measuring the spike amplitude in mV between the highest point of depolarisation and the lowest point of hyperpolarisation.
# Spike counts elicited by 200 pM doses of nucleotides, nucleosides, purines, pyrimidines and water were log(x+1.25)-transformed (optimal constant numerically established using a maximum likelihood procedure) and analysed using a linear mixed effects model (function ‘lme’ in “nlme” R package) with mosquito number as random effect. To model inhomogeneous variance in residuals (near normal distribution, P=0.045, Shapiro-Wilk test, W=0.98604), the variance function ‘varldent’ in the “nlme” package that allows for different variance per treatment was used. Statistical differences were identified between treatments using post-hoc-Tukey test with contrasts adjusted by Holm's family wise error compensation (FWEC). Spike counts elicited by ATP, AMP, adenosine and their binary mixtures were analysed using a generalised linear model (LM) of log (x+10) transformed data and differences were identified using post-hoc-Tukey test with Holm's FWEC.
# Log transformed spike amplitudes generated in response to ATP, adenosine and sucrose were compared using linear mixed effects models using the ‘lme’ function of the “nlme” R package, with spike amplitude as the dependent variable, treatment as the fixed factor and mosquito number within treatment as random effect. Residuals were normally distributed (Shapiro-Wilk test P>0.0563) and their variances homogeneous (Bartlett test P>0.9799); P-values were corrected using Holm's FWEC.
# Dose-response models fitted to mosquito data were generated using the ‘drm’ command in the “drc” R package (version 2.5-12). Best fitting models (goodness of fit) and effects of dose of a compound were assessed using, respectively, ‘modelFit’ and ‘noEffect’ functions in the same R package. A 3-parameter logistic model (L3) was fitted to spike-counts recorded to increasing doses of adenosine, AMP, ATP and AMP-CPP. Spike numbers recorded in response to 200 pM ATP with increasing doses of PR antagonists added were analysed using a 4-parameter log-logistic model (LL.4) for A-317491 and spinorphin, using a 4-parameter Weibull model (W1.4) for PPADS, RB-2 and TMP, and using a 3-parameter log-logistic model (LL.3) for suramin. An L3 model was fitted to proportions of females feeding on increasing doses of ATP. Feeding rates on 20 μM ATP with increasing doses of a PR antagonist added were analysed using a 4-parameter log-logistic model (LL.4) with the median of the positive control (20 μM ATP) fixed as the upper asymptote. […]
# A. gambiae = assay: Membrane feeding assay, A. gambiae; format: in vivo, Anopheles gambiae
# Protocol: Experiments with A. gambiae and A. stephensi were made in a climate chamber at 28° C. and 80% RH during the last 6 hours of scotophase. As a sugar meal can interfere with the blood meal by reducing the number of females that feed, the sucrose solution supplied in rearing cages to mosquitoes employed for feeding experiments was reduced to 5%. […] The 5% sucrose solution was presented to mosquitoes from emergence on four 1 cm diam. cotton dental rolls (Hartmann A G, Neuhausen, Switzerland) inserted in 10 ml upturned glass vials placed in holes at each corner of the rearing cage ceiling. Cotton rolls were turned daily in vials and renewed every two days. Mosquitoes were not fed blood and were deprived of sucrose 17 to 20 hours before experiments. Thirty min before a feeding experiment, between 10-25, 6-day-old females that responded to activation by human breath were removed with a mouth aspirator from the rearing cage wall and placed in polystyrol cylinders with the floor cut out (10 cm dm×15 cm high; Semadeni, Ostermundigen, Switzerland) that served as feeding cages. Each cage was covered with mosquito netting at one end and a soft polyurethane lid at the other.
# Mosquitoes were fed for 30 min using a feeding system (Hemotek®, Hemotek Ltd, Blackburn, UK) consisting of 3.5 ml stainless steel reservoirs 37 mm in diameter covered with a 60-90 μm thick silicone-impregnated membrane (Kröber and Guerin, 2007 in “Feeding assays for hard ticks”, Trends in parasitology 23, 445-449; doi 10.1016/j.pt.2007.07.010). Feeding reservoirs reached a temperature of 37° C. within 10 min and were placed on the netting of feeding cages. Mosquitoes were activated using a 200 ms pulse of pure CO2 (volume 6.25 ml) from a pressurised cylinder (Carbagas, Switzerland) using a solenoid valve that caused the CO2 level in the feeding cage to rise to at least 1,500 ppm. Between 3 and 4 sets of 10 feeding cages held in a custom-built Ertacetal® POM frame were tested per day, depending of the number of female mosquitoes available from the colony.
# All compounds were tested in a mosquito feeding solution (FS) consisting of 25 mM dextrose, 25 mM NaCl buffered with 8.93 mM NaHCO3 adjusted to pH 7.4. Feeding responses of A. gambiae and A. stephensi to ATP as a function of dose were tested with between 7 to 10 feeding cages per dose. Each feeding experiment with an antagonist systematically included a treatment containing the FS as negative control along with a treatment containing the FS with […] added as positive control for A. gambiae and with […] added as positive control for A. stephensi. These positive and negative controls permitted to monitor any effect of experimental day on feeding responses as a function of dose for antagonists that were recorded over several days. […] Four to 10 cages each with 10 to 29 mosquitoes were tested per antagonist dose. […] The number of feeding cages used to test other compounds and their mixtures as feeding stimulants or as feeding inhibitors is listed on Table 6. The percentage of fed mosquitoes was estimated by visual inspection of abdominal distention that is indicative of engorgement.
# Pairwise comparisons of A. gambiae electrophysiological (EP) responses to ATP and adenosine alone and combined with a given dose of PR antagonist, EP responses to ATP alone and combined with a given dose of a metal modulator, and EP responses to ATP prior to and after exposure of a sensillum to a given dose of a PR antagonist were made with a one-tailed Wilcoxon signed-rank test for data showing a non-normal distribution, with a paired Student's t-test for normally distributed data showing homogeneous variance and with a Welch's t-test for normally distributed data showing non-homogeneous variance. […]
# [2] = test system: A. gambiae mouthpart ATP-sensitive receptor; assay: Electrophysiological response to 200 pM ATP with PR antagonist admixed; format: cell-based, Anopheles gambiae; conditions: for ID50/ID95: block at maximum dose tested: admixed to 200 pM ATP; for ID95 in nM (±s.e.m.): increasing doses admixed to 200 pM ATP
# Protocol: as §1, §2
# Pairwise comparisons of A. gambiae electrophysiological (EP) responses to ATP and adenosine alone and combined with a given dose of PR antagonist, EP responses to ATP alone and combined with a given dose of a metal modulator, and EP responses to ATP prior to and after exposure of a sensillum to a given dose of a PR antagonist were made with a one-tailed Wilcoxon signed-rank test for data showing a non-normal distribution, with a paired Student's t-test for normally distributed data showing homogeneous variance and with a Welch's t-test for normally distributed data showing non-homogeneous variance. Effects on feeding of adding ATP, AMP-CPP, adenosine, ATP+adenosine, AMP and ADP-βS, CPT with ATP or adenosine, TMP with ATP+adenosine, TMP+CPT with ATP+adenosine to the FS for A. gambiae, and of adding PR antagonists with ATP to the FS for A. stephensi were compared using one-tailed Mann-Whitney U-test or Welch's t-test, depending on data distribution; Holm's FWEC was applied where treatment comparisons involved the same positive control. Percent feeding inhibition induced by PR antagonists in A. stephensi was calculated using Abbott's formula.
# Dose-response models fitted to mosquito data were generated using the ‘drm’ command in the “drc” R package (version 2.5-12). Best fitting models (goodness of fit) and effects of dose of a compound were assessed using, respectively, ‘modelFit’ and ‘noEffect’ functions in the same R package. A 3-parameter logistic model (L3) was fitted to spike-counts recorded to increasing doses of adenosine, AMP, ATP and AMP-CPP. Spike numbers recorded in response to 200 pM ATP with increasing doses of PR antagonists added were analysed using a 4-parameter log-logistic model (LL.4) for A-317491 and spinorphin, using a 4-parameter Weibull model (W1.4) for PPADS, RB-2 and TMP, and using a 3-parameter log-logistic model (LL.3) for suramin. An L3 model was fitted to proportions of females feeding on increasing doses of ATP. Feeding rates on 20 μM ATP with increasing doses of a PR antagonist added were analysed using a 4-parameter log-logistic model (LL.4) with the median of the positive control (20 μM ATP) fixed as the upper asymptote. Response dynamics in 3-parameter models are related to the slope b, the upper asymptote, and inflexion point of the model e (the ED50 value), whereas 4 parameter models also include the lower asymptote parameter. […]
compound,measurement,setting,value
"Nc1ncnc2c1ncn2C1OC(COP(=O)(O)CP(=O)(O)OP(=O)(O)O)C(O)C1O (stereo not drawn) [AMP-CPP, α,β-Methyleneadenosine-5′-triphosphate]",ED95,[1],0.05 nM
same,dose at which the unsurmountable asymptote is reached,[1],80 pM
same,% Engorged mosquitoes,A. gambiae; 20 μM in feeding solution,84.35% and 84.3 ± 6.8%
"Clc1cccc(-c2nnnn2Cc2cccnc2)c1Cl [A-438079, 3-[[5-(2,3-dichlorophenyl)tetrazol-1-yl]methyl]pyridine]",% reduction in feeding,"A. gambiae; 20 μM, with 20 μM ATP","(20 μM, 30.74%)"
same,"% fed mosquitoes (mean ± s.e.m.), ATP + antagonist",A. gambiae; antagonist 20 μM + 20 μM ATP,48.65%
same,"Mean no. of spikes per 2 s (±s.e.m.), ATP + antagonist",[2]; antagonist 1000 nM + 200 pM ATP,22.57 spikes per 2 s
same,ID50/ID95: block at maximum dose tested,[2]; maximum dose 1 μM,No block (1 μM)
"Nc1ncnc2c1ncn2[C@@H]1O[C@H](CO)[C@@H](O)[C@H]1O [Adenosine, 9-β-D-Ribofuranosyladenine]",spike frequency,"[1]; 50 pM alone, mixture 50 pM of each agonist",1.25±0.62 /2s
same,"EP response, spike frequency",[1]; 200 pM,30.23±3.02 spikes/2s
same,EC50,[1],~0.12 nM
same,spikes recorded at the asymptote,[1],approximately 30 spikes/2 s
same,Mean spike frequency per 2 s (±SEM),[1],27.14 per 2 s
same,ED95,[1],~0.2 nM
same,dose at which the unsurmountable asymptote is reached,[1],250 pM
same,% Engorged mosquitoes,A. gambiae; 20 μM in feeding solution,39.1 ± 5.7%
same,% Engorged mosquitoes,A. gambiae; 1 mM in feeding solution,64.4 ± 3.2%
"CC(C)C[C@H](N)C(=O)N[C@H](C(=O)N[C@H](C(=O)N[C@@H](Cc1ccc(O)cc1)C(=O)N1CCC[C@H]1C(=O)N[C@@H](Cc1c[nH]c2ccccc12)C(=O)N[C@H](C(=O)O)[C@@H](C)O)C(C)C)C(C)C [Spinorphin, L-leucyl-L-valyl-L-valyl-L-tyrosly-L-prolyl-L-tryptophyl-L-threonine] (H-LVVYPWT-OH)",% reduction in feeding,"A. gambiae; 100 nM, with 20 μM ATP","(100 nM, 27.31%)"
same,"effect on feeding on solution containing ATP, in words","A. gambiae; 20 μM ATP, CPT at 10 μM",inhibited feeding
same,"% fed mosquitoes (mean ± s.e.m.), ATP + antagonist",A. gambiae; antagonist 100 nM + 20 μM ATP,46.62%
same,"effect on EP response to ATP, in words","[2]; 200 pM ATP, suramin at 1 nM",inhibited
same,"Mean no. of spikes per 2 s (±s.e.m.), ATP + antagonist",[2]; antagonist 1 nM + 200 pM ATP,9.8 spikes per 2 s
same,ID95 in nM (±s.e.m.),[2],0.43 nM
same,ID95 in nM (±s.e.m.),[2]; listed as spinorphin,ca. 0.4 nM
"Nc1ncnc2c1ncn2[C@H]1CC[C@@H](COP(=O)(O)OP(=O)(O)OP(=O)(O)O)O1 [ddATP, 2′,3′-Dideoxyadenosine-5′-triphosphate]",EP response in words,[1]; 200 pM,strongly reduced activity
"Nc1ncnc2c1ncn2[C@@H]1O[C@H](COP(=O)(O)O)[C@@H](O)[C@H]1O [AMP, Adenosine 5′-monophosphate]",EC50,[1],~0.12 nM
same,spikes recorded at the asymptote,[1],approximately 30 spikes/2 s
same,Mean spike frequency per 2 s (±SEM),[1],28.58 per 2 s
same,ED95,[1],~0.2 nM
same,dose at which the unsurmountable asymptote is reached,[1],250 pM
same,% Engorged mosquitoes,A. gambiae; 20 μM in feeding solution,38.3 ± 5.1%
"Fc1ccc([C@@H]2CCNC[C@H]2COc2ccc3c(c2)OCO3)cc1 [Paroxetine, (3S,4R)-3-(1,3-benzodioxol-5-yloxymethyl)-4-(4-fluorophenyl)piperidine]","% fed mosquitoes (mean ± s.e.m.), ATP + antagonist",A. gambiae; antagonist 20 μM + 20 μM ATP,62.72%
same,feeding inhibition at maximum dose tested,"A. gambiae; maximum dose 20 μM, with 20 μM ATP",No feeding inhibition
same,"Mean no. of spikes per 2 s (±s.e.m.), ATP + antagonist",[2]; antagonist 2000 nM + 200 pM ATP,27.6 spikes per 2 s
same,ID50/ID95: block at maximum dose tested,[2]; maximum dose 2 μM,No block (2 μM)
"Nc1ncnc2c1ncn2[C@@H]1O[C@H](COP(=O)(O)OP(=O)(O)O)[C@@H](O)[C@H]1O [ADP, Adenosine 5′-diphosphate]",EP response in words,[1]; 200 pM,no activity; also recorded: failure
"Nc1ncnc2c1ncn2[C@H]1C[C@H](O)[C@@H](COP(=O)(O)OP(=O)(O)OP(=O)(O)O)O1 [dATP, 2′-Deoxyadenosine 5′-triphosphate]",EP response in words,[1]; 200 pM,strongly reduced activity
